The target of one test is Complex I (Bos taurus, UniProt P25708). Description: Determination of Complex I mediated ROS-inhibition (CI). It is filed as biochemical, bovine. Particulars: read-out: CI IC50.
Test [1] deals with mice neuroblastoma cells (HT-22). Description: Determination of Cellular Protection (HT22). Particulars: Mus musculus, HT-22, 16 h, read-out: HT22 IC50.

Like-named read-outs stand apart in the source and are kept apart here.

In general, IC50 refers to the concentration that inhibits the measured activity by half.

Regarding `CC(C)Nc1ccc2c(c1)/C(=C1\CCOCCN1)C(=O)N2C1CCOCC1` [Compound 30], the half-maximal inhibitory concentration (IC50) at Complex I (Complex I purified from bovine heart, ROS detected via Amplex Red/horse radish peroxidase, 8 point concentration-response) came out at 195 nM; in test [1] it was 135 nM. On to `CN1C(=O)/C(=C2/COCCN2)c2cc(NC3CC4CCC(C3)N4C)ccc21` (stereo not shown) [Compound 131], for which the values for the IC50 (on Complex I; in test [1]) were 189 nM and 111 nM, respectively. With `CC(C)N1C(=O)/C(=C2/COCCN2)c2cc(NC3C[C@H]4CC[C@@H](C3)N4C)ccc21` (stereo partly shown) [Compound 123], the half-maximal inhibitory concentration (IC50) at Complex I turned out to be 916 nM; in test [1], 17 nM. On the same counts, the results for `CN1[C@@H]2CC[C@H]1CC(Nc1ccc3c(c1)/C(=C1\COCCN1)C(=O)N3C1CCOCC1)C2` (stereo partly shown) [Compound 101] are 202 nM and 369 nM. Regarding `CC(C)Nc1ccc2c(c1)/C(=C1\COC3(CCN(C(C)C)CC3)CN1)C(=O)N2C(C)C` [Compound 138], the 50% inhibitory concentration (IC50) in test [1] turned out to be 6 nM.

As for `CC(C)Nc1ccc2c(c1)/C(=C1\CCCN1C)C(=O)N2C(C)C` [Compound 115], in test [1], the IC50 came to 30 nM.

`CC(C)N1C(=O)/C(=C2/COCCN2)c2cc(NCC3CCOCC3)ccc21` [Compound 75]: the concentration for half-maximal inhibition (IC50) in test [1] worked out at 73 nM. Still for that read-out and setting: as for `O=C1/C(=C2/COCCN2)c2cc(NC3CCCC3)ccc2N1C1CCOCC1` [Compound 60], the figure is 10 nM; as for `CC1CCCC1Nc1ccc2c(c1)/C(=C1\COCCN1)C(=O)N2C1CCOCC1` (stereo not shown) [Compound 102], 3 nM; as for `CC(C)N1CCC2(CC1)CN/C(=C1\C(=O)N(C(C)C)c3ccc(N4CCCC4)cc31)CO2` [Compound 91], 9 nM. Still for that read-out and setting: as for `CNc1ccc2c(c1)/C(=C1\CCCN1)C(=O)N2C1CCOCC1` [Compound 43], the figure is 124 nM. The same measure, in the same setting: for `CC(C)N1C(=O)/C(=C2/COCCN2)c2cc(NC3CCN(C)CC3)ccc21` [Compound 38] the value was 38 nM; for `CC(C)C(C)Nc1ccc2c(c1)/C(=C1\COCCN1)C(=O)N2C(C)C` (stereo not shown) [Compound 95], 6 nM; for `O=C1/C(=C2/COCCN2)c2cc(NC3CCC3)ccc2N1C1CCOC1` (stereo not shown) [Compound 14], 20 nM.

As to `CC(C)N1C(=O)/C(=C2/CCCN2C)c2cc(NC3CCC3)ccc21` [Compound 161], the concentration for half-maximal inhibition (IC50) in test [1] turned out to be 20 nM.

The values above are taken from patent EP4291552B1, “MODULATORS OF COMPLEX I” (Boehringer Ingelheim International GmbH, priority 2021, dated 2022).
